Data taken from patent publication US11969402B2, “Compositions and methods for skin rejuvenation” (THE JOHNS HOPKINS UNIVERSITY, priority 2019, dated 2024).

Legend:
Aldh1a2, Aldh1a3 = test: qRT-PCR of Aldh1a2 and Aldh1a3 in mouse wounds; format: in vivo
Protocol: Wound Induced Hair Neogenesis (WIHN). All experiments were followed with the present inventors' WIHN protocol^1,9. Briefly, hair was shaved and a 1.2 cm^2 full-thickness skin on the backs of 21-day old (telogen) male and female mice was removed by sterile scissors. A single treatment of RA (30 μl) (0.1 μg per mouse) (Millipore Sigma, R2625) and BMS493 (30 μl) (0.1 μg per mouse) (Cayman Chemical, #17418) was applied topically onto open wound on WD1 of Tlr3^−/− and WT mice, respectively. Poly (I:C) (50 μl) (5 μg per mouse) (Invivogen, tlrl-pic) was injected under the healed scab on WD3 of WT mice as described before^9,34. On WD20-24, numbers of regenerated hair follicles were visualized and quantified in the re-epithelialized skin by non-invasive confocal scanning laser microscopy (CSLM) (Caliber I.D., VIVASCOPE 1500) as published^1,9. As a vehicle (Control), ethanol (EtOH), dimethylsulfoxide (DMSO), or PBS was treated for RA, BMS493, and Poly (I:C), respectively.
RNA isolation and quantitative real-time PCR (qRT-PCR). For cells, total RNA was isolated from cultured keratinocytes using RNeasy Mini Kit (Qiagen, Valencia, CA, #74106) and treated with DNase I (Qiagen, #79254) to eliminate genomic DNA. For tissue, total RNA was isolated by following the manual of Direct-zol™ RNA MiniPrep Plus kit (Zymo Research, R2073). The purity and concentration of RNAs were analyzed using a NanoDrop2000c (Thermo Fisher Scientific, ND-2000c). Following reverse transcriptase reactions using high-capacity RNA to cDNA kit (Life Technologies), qRT-PCR was performed to measure target genes using TaqMan probes and Fast reaction master mix reagents (Life Technologies). Relative expression of mRNAs was analyzed by the cycle of threshold (Ct) value of target genes and quantified by normalizing to ribosomal protein large P0 (RPLP0) for human keratinocytes and to β-Actin for mouse keratinocytes or tissues as housekeeping genes using the ΔΔCt method^48.

[1] = test system: human scalp keratinocytes; test: Retinoid levels (RA by LC-MS/MS, ROL and RE by HPLC-UV) in keratinocytes; format: cell-based
Source text: Small interference RNA (siRNA) transfection. Human ALDH1A2 (Santa Cruz Biotechnology, sc41443), ALDH1A3 (Santa Cruz Biotechnology, sc43611), TLR3 (Dharmacon, M-007745-00), TRIF (Santa Cruz Biotechnology, sc106845), IRF3 (Santa Cruz Biotechnology, sc35710), NF-κB (Santa Cruz Biotechnology, sc29410) and non-targeting control (scramble) siRNAs (Santa Cruz Biotechnology, sc37007 & Dharmacon, D-001210) were commercially provided. Human scalp keratinocytes (3×10^5 cells per well) in 12-well plates were transfected with 20 nM of siRNAs using Lipofectamine® RNAiMAX (Thermo Fisher Scientific, #13778150) following the manufacturer's directions. Poly (I:C) (0.1 μg per ml) was applied to transfected cells and incubated for 48 hrs. At the end of transfection period, cells were harvested to isolate protein to perform qRT-PCR, western blot, and RA mass spectrometry.
IL6 treatment. Recombinant human interleukin 6 (rhIL6) (R&D system; 206-IL-010) was treated into human scalp keratinocytes with dose-dependent manners (0, 10, 50, and 100 ng per ml) for 2 days. Cells were harvested and lysates were used for RA measurement.
Determination of Retinoid Levels. For in vitro samples, human scalp keratinocytes were incubated with 0.5 μg per ml of Poly (I:C) for 48 hrs or siRNAs-transfected cells were incubated with 0.1 μg per ml of Poly (I:C) for 48 hrs. For in vivo samples, skin was analyzed from wild-type and Tlr3^−/− unwounded and wounded skin where wound regions (center and edge area) were cut by scalpel. Human skin was analyzed for retinoids with and without CO2 laser treatment as described. All samples were frozen at collection and stored at −80° C. until extraction. For in vitro experiments, media and cell pellets were analyzed separately. For in vivo experiments, tissues were homogenized in saline. Extraction of retinoids was performed under yellow lights using a two-step liquid-liquid extraction that has been described in detail previously using 4,4-dimethyl-RA as an internal standard for RA and retinyl acetate as an internal standard for retinol and total retinyl ester^43-46. For the extraction of retinoids, 1 to 3 ml of 0.025 M KOH in ethanol was added to tissue homogenates (in vivo) or cell culture (in vitro) samples. Then 10 ml hexane (for in vivo tissue sample) or 5 ml hexane (for in vitro cell culture sample) was added to the aqueous ethanol phase. The samples were vortexed and centrifuged for 1 to 3 min at 1000 rpm in a Dynac centrifuge (Becton Dickinson) to facilitate phase separation and pellet precipitated protein. The hexane (top) phase containing nonpolar retinoids (ROL and RE) was removed. 4 M HCl (60-180 μl) was added to the remaining aqueous ethanol phase, samples were vortexed, and then polar retinoids (RA) were removed by extraction with a second 5-10 ml aliquot of hexane as described above. […]
Levels of RA were determined by liquid chromatography-multistage tandem mass spectrometry (LC-MRM^3) which is an LC-MS/MS method utilizing two distinct fragmentation events for enhanced selectivity^43. RA was measured using a Shimadzu Prominence UFLC XR liquid chromatography system (Shimadzu, Columbia, MD) coupled to an AB Sciex 5500 or 6500+ QTRAP hybrid triple quadrupole mass spectrometer (AB Sciex, Framingham, MA) using atmospheric pressure chemical ionization (APCI) operated in positive ion mode as previously described^43. […]

cells = test: Entry of dsRNA (PIC) into cells, stain (Example 2); format: cell-based; conditions: after pre-treatment with RA

Substance: Polyinosinic-polycytidylic acid [Poly (I:C)]
- Aldh1a3 and Aldh1a2 induction in early wounds (Aldh1a2, Aldh1a3; Tlr3−/− mice): neither is induced
- Aldh1a2 transcription during wound healing (Aldh1a2, Aldh1a3; WT mice): did not show a similar pattern
- Aldh1a3 transcription during wound healing (Aldh1a2, Aldh1a3; WT mice): induced
- Poly (I:C)-induced RA accumulation ([1]; TLR3 siRNA-transfected human keratinocytes, 0.1 μg per ml, 48 hrs): dependent on TLR3
- RA synthesis ([1]; human keratinocytes transfected with MDA5- or RIG-I-siRNA): still induce RA synthesis
- retinol (ROL) and retinyl ester (RE) quantities ([1]; human keratinocytes treated with Poly (I:C)): not modified
- RA abundance ([1]; human keratinocytes, cell lysates and culture media, 0.5 μg per ml, 48 hrs): markedly increased
- accumulation of PIC in cells (cells): much more effectively
